Measured values: patent US9815847B2 (Icahn School of Medicine at Mount Sinai, priority 2013, dated 2017)

Experiments:
K562 = experiment: Cytotoxicity on K562 cancer cell line; type: cell-based; details: Homo sapiens; K562 chronic myelogenous leukemia; 96 h; 0.01-100 μM
Experimental: (§1) The effect of the compounds described herein on tumor cells was determined by the assay described by Latham et al., Oncogene 12:827-837 (1996). Tumor cells K562 (chronic myelogenous leukemia; leukemia cell line +ve for Bcr-Abl) or DU145 (prostate cancer) were plated in 12-well dishes at a cell density of 2.5×10^4 cells per well. The plated cells were treated 24 h. later with a DMSO solution of a compound as described herein at multiple concentrations ranging from 0.01 μM to 100 μM. The plates were examined 96 h. later under an inverted microscope, Olympus CK-2 using a 10× objective, and compound activity was noted by physical observation. When necessary, the total number of viable cells was determined by trypsinizing the wells and counting the number of viable cells, as determined by trypan blue exclusion, using a hemacytometer.

DU145 = experiment: Cytotoxicity on DU145 cancer cell line; type: cell-based; details: Homo sapiens, DU-145; DU145 prostate cancer; 96 h; 0.01-100 μM
Experimental: as §1

Row | Structure (SMILES) | IC50 (K562) [µM] | IC50 (DU145) [µM]
1 | CNc1nc(Nc2cc(OC)c(OC)c(OC)c2)ncc1/C=C/S(=O)(=O)c1ccc(F)cc1F [Compound 15g, (E)-5-{2-[(2,4-Difluorophenyl)sulfonyl]vinyl}-N^4-methyl-N^2-(3,4,5-trimethoxyphenyl)pyrimidine-2,4-diamine] | 50 to 100 | 1 to 25
2 | CNc1nc(Nc2nc3ccccc3[nH]2)ncc1/C=C/S(=O)(=O)c1ccc(F)cc1F [Compound 15h, (E)-N^2-(1H-Benzo[d]imidazol-2-yl)-5-{2-[(2,4-difluorophenyl)sulfonyl]vinyl}-N^4-methylpyrimidine-2,4-diamine] | 1 to 25 | 1 to 25
3 | CNc1nc(Nc2ccc3[nH]ncc3c2)ncc1/C=C/S(=O)(=O)c1ccc(F)cc1F [Compound 15i, (E)-5-{2-[(2,4-Difluorophenyl)sulfonyl]vinyl}-N^2-(1H-indazol-5-yl)-N-methylpyrimidine-2,4-diamine] | 1 to 25 | 1 to 25
4 | COc1ccc(S(=O)(=O)/C=C/c2cnc(Nc3ccc(N4CCN(C)CC4)cc3)nc2NC2CCCC2)cc1 [Compound 15j, (E)-N^4-Cyclopentyl-5-{2-[(4-methoxyphenyl)sulfonyl]vinyl}-N^2-[4-(4-methylpiperazin-1-yl)phenyl]pyrimidine-2,4-diamine] | 1 to 25 | 1 to 25
5 | COc1ccc(S(=O)(=O)/C=C/c2cnc(Nc3ccc4[nH]ccc4c3)nc2NC2CCCC2)cc1 [Compound 15k, (E)-N^4-Cyclopentyl-N^2-(1H-indol-5-yl)-5-{2-[(4-methoxyphenyl)sulfonyl]vinyl}pyrimidine-2,4-diamine] | 1 to 25 | 1 to 25
6 | CNc1nc(Nc2ccc(N3CCN(C)CC3)cn2)ncc1/C=C/S(=O)(=O)c1ccc(F)cc1F [Compound 15l, (E)-5-{2-[(2,4-Difluorophenyl)sulfonyl]vinyl}-N^4-methyl-N^2-[5-(4-methylpiperazin-1-yl)pyridin-2-yl]pyrimidine-2,4-diamine] | 1 to 25 | 1 to 25
7 | COc1ccc(Nc2ncc(/C=C/S(=O)(=O)c3ccc(OC)cc3)c(NC3CCCC3)n2)cc1 [Compound 15m, (E)-N^4-Cyclopentyl-N^2-(4-methoxyphenyl)-5-{2-[(4-methoxyphenyl)sulfonyl]vinyl}pyrimidine-2,4-diamine] | 1 to 25 | 1 to 25
8 | CNc1nc(Nc2ccc3[nH]cnc3c2)ncc1/C=C/S(=O)(=O)c1ccc(F)cc1F [Compound 15n, (E)-N^2-(1H-Benzo[d]imidazol-5-yl)-5-{2-[(2,4-difluorophenyl)sulfonyl]vinyl}-N^4-methylpyrimidine-2,4-diamine] | 1 to 25 | 1 to 25
9 | COc1ccc(S(=O)(=O)/C=C/c2cnc(N3CCOCC3)nc2NC2CCCC2)cc1 [Compound 15o, (E)-N-Cyclopentyl-5-{2-[(4-methoxyphenyl)sulfonyl]vinyl}-2-morpholinopyrimidin-4-amine] | 1 to 25 | 1 to 25
10 | O=S(=O)(/C=C/c1cnc(N2CCOCC2)nc1NC1CCCC1)c1ccc(F)cc1N1CCOCC1 [Compound 15p, (E)-N-Cyclopentyl-5-{2-[(4-fluoro-2-morpholinophenyl)sulfonyl]vinyl}-2-morpholinopyrimidin-4-amine] | 50 to 100 | 1 to 25
11 | COc1ccc(S(=O)(=O)/C=C/c2cnc(Nc3ccc(N4CCN(C)CC4)cc3)nc2Nc2ccn(C)n2)cc1 [Compound 15q, (E)-5-{2-[(4-Methoxyphenyl)sulfonyl]vinyl}-N^4-(1-methyl-1H-pyrazol-3-yl)-N^2-[4-(4-methylpiperazin-1-yl)phenyl]pyrimidine-2,4-diamine] | < 1 | 1 to 25
12 | CN1CCN(c2ccc(Nc3ncc(/C=C/S(=O)(=O)c4ccc(F)cc4F)c(Nc4ccn(C)n4)n3)cc2)CC1 [Compound 15r, (E)-5-{2-[(2,4-Difluorophenyl)sulfonyl]vinyl}-N^4-(1-methyl-1H-pyrazol-3-yl)-N^2-[4-(4-methylpiperazin-1-yl)phenyl]pyrimidine-2,4-diamine] | 1 to 25 | 1 to 25
